Literature values in article PMC7383075 (Journal of Nuclear Medicine, 2020).

Assays:
insulinomas = details: at the proper dilution; ref [23]
Source text: A targeted approach, as described in this study, has the benefit of creating signals with higher contrast between the target and surrounding tissue and therefore more precise delineation of the lesion. […] Re ...

[1] = test system: primary breast cancer lesions, as well as peritoneal metastases of colorectal cancer; details: primary breast cancer lesions and peritoneal metastases of colorectal cancer; ref [29],[30]
Source text: Contributing to the potential for clinical translation of this tracer is the use of the NIR fluorophore IRDye 800CW. This dye is widely used in the development of targeted fluorescence imaging approaches, and several studies already have shown the first successful clinical applications using this fluorophore. […] Also, IRDye 800CW coupled to the monoclonal antibody cetuximab was successfully used fo ...

CN(C)c1ccc2nc3ccc(=[N+](C)C)cc-3sc2c1 [methylene blue]
uptake in insulinomas versus normal pancreatic tissue (insulinomas): higher uptake in insulinomas than in normal pancreatic tissue

IRDye 800CW coupled to the monoclonal antibody bevacizumab: IRDye 800CW coupled to the monoclonal antibody bevacizumab
detection of cancer lesions [1]: shown to be feasible
